≈ marks a conversion by molar mass, not a printed value. Where a SMILES comes first, the peptide text is derived from it. Bridges are numbered along the chain shown (N, C = ends).
Tests used:
[1] = system: B. subtilis (Bs, ATCC 23857); experiment: microbe, parasite or virus in culture; assay type: cell-based, Bacillus subtilis; conditions: ATCC 23857, 24 h
Outline: (§1)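 Cultures grown in Mueller–Hinton broth were adjusted by OD600 to 2.5–3 × 10^4 CFU/mL and mixed with two-fold peptide dilutions from 256 to 1 µg/mL. Plates were incubated at 35 °C with OD595 monitored every hour for 24 h.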

[2] = system: C. glutamicum (Cg, ATCC 13032); experiment: microbe, parasite or virus in culture; assay type: cell-based, Corynebacterium glutamicum; conditions: ATCC 13032, 24 h
Outline: as §1

[3] = system: S. aureus (Sa, ATCC 9144); experiment: microbe, parasite or virus in culture; assay type: cell-based, Staphylococcus aureus; conditions: ATCC 9144, 24 h
Outline: as §1

[4] = system: S. epidermidis RP62A (Se, ATCC 35984); experiment: microbe, parasite or virus in culture; assay type: cell-based, Staphylococcus epidermidis; conditions: ATCC 35984, 24 h
Outline: as §1

E. coli (Ec, ATCC 25922) = experiment: microbe, parasite or virus in culture; assay type: cell-based, Escherichia coli; conditions: ATCC 25922, 24 h
Outline: as §1

[5] = system: P. aeruginosa (Pa, ATCC 27853); experiment: microbe, parasite or virus in culture; assay type: cell-based, Pseudomonas aeruginosa; conditions: ATCC 27853, 24 h
Outline: as §1

all bacterial strains = experiment: Antibacterial MIC assay, all bacterial strains together (range or geometric mean); assay type: cell-based; conditions: for GM (geometric mean of the MIC values against all bacterial strains): Table 1, six bacterial strains; for GM of MIC Tot. bact.: Table S3, all bacterial test strains, MIC >256 set to 256
Outline: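 Broth microdilution in Mueller–Hinton broth against B. subtilis, C. glutamicum, S. aureus, S. epidermidis RP62A, E. coli and P. aeruginosa; inoculum 2.5–3 × 10^4 CFU/mL, 35 °C, OD595 read hourly for 24 h. MIC: lowest peptide concentration giving OD below 10% of growth control; geometric mean across strains, triplicate.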

A. pullulans (Ap) = experiment: microbe, parasite or virus in culture; assay type: cell-based, Aurobasidium pollulans; conditions: 48 h
Outline: (§2)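 Overnight cultures in potato dextrose broth with 2% glucose at 25–30 °C were diluted to approx. 4 × 10^5 spores/mL and mixed 1:1 with two-fold peptide dilutions plated at 256 to 1 µg/mL. After 48 h at room temperature, OD600 was read. MIC was the lowest concentration giving OD below 10% of the growth control, in triplicate.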

[6] = system: C. albicans (Ca, ATCC 10231); experiment: microbe, parasite or virus in culture; assay type: cell-based, Candida albicans; conditions: ATCC 10231, 48 h
Outline: as §2

Rhodotorula sp. (Rh) = experiment: microbe, parasite or virus in culture; assay type: cell-based; conditions: 48 h
Outline: as §2

[7] = system: human red blood cells (RBC); experiment: Haemolytic activity assay; assay type: cell-based; conditions: for Selectivity index (SI) G- / Selectivity index (SI) G+ / Selectivity index (SI) Fungi: Table S3, highest tested concentration used where EC50 above it; for Selectivity index (SI) G-: EC50/GM of Gram-negative strains; for Selectivity index (SI) G+: EC50/GM of Gram-positive strains; for Selectivity index (SI) Fungi: EC50/GM of fungi; for SI (selectivity index = EC50/GM): haemolytic EC50 over GM of MIC against all bacterial strains, Table 1
Outline: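 Washed human erythrocytes (1% hematocrit final) incubated 1 h at 37 °C with agitation with lipopeptides at 500–3.9 μM in PBS (≤1% DMSO), duplicates. Haemoglobin release read at 545 nm relative to 0.1% Triton X-100; EC50 is 50% haemolysis, averaged from three experiments.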

[8] = system: E. coli MC4100 (wild type, WT); experiment: microbe, parasite or virus in culture; conditions: wild type
Method: (§3) All cyclic and linear peptides were screened for antibacterial activity against four Gram-positive strains: B. subtilis (Bs, ATCC 23857), C. glutamicum (Cg, ATCC 13032), S. aureus (Sa, ATCC 9144) and S. epidermidis RP62A (Se, ATCC 35984), and two Gram-negative strains: E. coli (Ec, ATCC 25922) and P. aeruginosa (Pa, ATCC 27853). The activity was assessed using a broth microdilution assay according to a modified CLSI-based method. Briefly, overnight bacterial cultures were grown in Mueller–Hinton (MH) broth medium (Difco Laboratories, Detroit, MI, USA) for 2 h at room temperature. The optical density (OD600) was measured, and the bacterial suspensions were adjusted to 2.5–3 × 10^4 CFU/mL in MH medium. The bacterial suspension (50 µL) was distributed in 96-well plates (Nunc, Roskilde, Denmark) preloaded with two-fold dilution series (256 to 1 µg/mL) of peptide solutions (50 µL), giving a final well volume of 100 µL. The microplates were incubated in an EnVision 2103 microplate reader (PerkinElmer, Llantrisant, UK) at 35 °C, with OD595 recorded every hour for 24 h. MIC was defined as the lowest concentration of peptides showing an optical density less than 10% of the negative (growth) control, consisting of bacterial suspension and water. Polymyxin B sulfate (Sigma-Aldrich, St. Louis, MO, USA) and chlorhexidine acetate (CHX, Fresenius Kabi, Halden, Norway), both with concentrations ranging from 12.5 to 0.09 μg/mL, served as positive (growth inhibition) controls. All peptides were tested in triplicate.
(§4) MIC values were determined for all cyclic peptides against two E. coli strains: wild type (WT) MC4100 and the hyperpermeable variant NR698, having a deficient outer membrane. The NR698 strain, containing lptD4213/imp4213 mutation, was kindly provided by M. Grabowicz (Emory University School of Medicine, Rollins Research Center, Atlanta, GA, USA). The assay was performed in the same way as previously described for the antibacterial MIC assay.

[9] = system: E. coli NR698 (outer membrane permeable mutant, imp4213); experiment: microbe, parasite or virus in culture; conditions: MC4100 NR698 imp4213, deficient outer membrane
Method: as §3, §4

[10] = system: Gram-positive bacterial strains; conditions: Table S3; MIC >256 set to 256
Outline: as §1

[11] = system: Gram-negative bacterial strains (E. coli and P. aeruginosa); experiment: Antibacterial MIC assay, Gram-negative strains together (range or geometric mean); assay type: cell-based; conditions: Table S3; MIC >256 set to 256
Outline: as §1

[12] = system: fungi (A. pullulans, C. albicans, Rhodotorula sp.); experiment: Antifungal MIC assay, all fungi together (range or geometric mean); assay type: cell-based; conditions: Table S3; MIC >128 set to 128
Outline: as §2

| Structure (SMILES) | Antimicrobial Activity (MIC) Gram + Bs [1] [µg/mL] | Antimicrobial Activity (MIC) Gram + Cg [2] [µg/mL] | Antimicrobial Activity (MIC) Gram + Sa [3] [µg/mL] | Antimicrobial Activity (MIC) Gram + Se [4] [µg/mL] | Antimicrobial Activity (MIC) Gram − Ec (E. coli (Ec, ATCC 25922)) [µg/mL] | Antimicrobial Activity (MIC) Gram − Pa [5] [µg/mL] | GM (geometric mean of the MIC values against all bacterial strains) (all bacterial strains) [µg/mL] | GM of MIC Tot. bact. (all bacterial strains) [µg/mL] | Antimicrobial Activity (MIC) Fungi Ap (A. pullulans (Ap)) [µg/mL] | Antimicrobial Activity (MIC) Fungi Ca [6] [µg/mL] | Antimicrobial Activity (MIC) Fungi Rh (Rhodotorula sp. (Rh)) [µg/mL] | Selectivity index (SI) G- [7] | Selectivity index (SI) G+ [7] | Selectivity index (SI) Fungi [7] | SI (selectivity index = EC50/GM) [7] | MIC E. coli MC4100 (WT) [8] [µg/mL] | MIC E. coli NR698 (mutant) [9] [µg/mL] | GM of MIC G+ [10] [µg/mL] | GM of MIC G- [11] [µg/mL] | GM of MIC Fungi [12] [µg/mL] | also measured |
| --- | --- | --- | --- | --- | --- | --- | --- | --- | --- | --- | --- | --- | --- | --- | --- | --- | --- | --- | --- | --- | --- |
| CC(C)C[C@H](NC(=O)[C@H](CCCNC(=N)N)NC(=O)[C@@H]1CSSC[C@H](N)C(=O)NCC(=O)N[C@@H](CCCNC(=N)N)C(=O)N[C@@H](CCCNC(=N)N)C(=O)N[C@@H](Cc2c[nH]c3ccccc23)C(=O)N[C@@H](Cc2c[nH]c3ccccc23)C(=O)NCC(=O)N[C@@H](Cc2c[nH]c3ccccc23)C(=O)N[C@@H](CCCNC(=N)N)C(=O)N1)C(N)=O [cTurg-5] (H-CGRRWWGWRCRL-NH2; disulfide 1-10; N-terminus assumed) | 8 | 4 | 16 | 8 | 8 | 16 | 9 | 9 | 32 | 32 | 32 | > 97 | > 138 | > 34 | >123 | 8 (≈ 4.9 µM) | 8 (≈ 4.9 µM) | 8 | 11 | 32 | RBC Tox. (EC50), haemolytic activity ([7]; human RBC, 1 h, 37 °C, concentration giving 50% haemolysis): >1101 µg/mL |
| CC(C)C[C@H](NC(=O)[C@H](CCCCN)NC(=O)[C@@H]1CSSC[C@H](N)C(=O)NCC(=O)N[C@@H](CCCCN)C(=O)N[C@@H](CCCCN)C(=O)N2CCC[C@H]2C(=O)N[C@@H](Cc2c[nH]c3ccccc23)C(=O)N[C@@H](Cc2c[nH]c3ccccc23)C(=O)N[C@@H](Cc2c[nH]c3ccccc23)C(=O)N[C@@H](CCCCN)C(=O)N1)C(N)=O [cTurg-4] (H-CGKKPWWWKCKL-NH2; disulfide 1-10; N-terminus assumed) | 8 | 4 | 64 | 32 | 64 | 256 | 32 | 32 | 32 | 64 | 32 | > 8 | > 67 | > 26 | >33 | 16 (≈ 10.3 µM) | 8 (≈ 5.13 µM) | 16 | 128 | 40 |  |
